Data published in ChEMBL document CHEMBL1149966 (Bioorg Med Chem Lett, 1997).
“And” between values parts separate entries of the source, which are not always exact repeats. Equal values may be shown once.

What was measured:
[1] = system: Human immunodeficiency virus 1; test: The activity against HIV was determined from patient number 302; assay type: functional, organism-based
[2] = system: Human immunodeficiency virus 1; test: The activity against HIV multiply mutated strain M36M/I,V82V/A was determined from patient number 304; assay type: functional, organism-based
[3] = system: Human immunodeficiency virus 1; test: The activity against HIV was determined from patient number 129; assay type: functional, organism-based
[4] = system: Human immunodeficiency virus 1; test: The activity against mutant HIV molecular clone V82A was determined; assay type: functional, organism-based
[5] = system: Human immunodeficiency virus 1; test: The activity against mutant HIV molecular clone V82T was determined; assay type: functional, organism-based
[6] = system: Human immunodeficiency virus 1; test: The activity against HIV was determined from patient number 313; assay type: functional, organism-based
[7] = system: Human immunodeficiency virus 1; test: The activity against mutant HIV molecular clone wt (pNL4-3) was determined; assay type: functional, organism-based
[8] = system: Human immunodeficiency virus 1; test: The activity against mutant HIV molecular clone V82F was determined; assay type: functional, organism-based
[9] = system: Human immunodeficiency virus 1; test: The activity against HIV mutant strain V82S was determined from patient number 337; assay type: functional, organism-based
MT4 [10] = test: Inhibitory potency towards recombinant HIV-1 3B in MT-4 cell was evaluated in 50% human plasma; assay type: functional, cell-based
[11] = system: Human immunodeficiency virus 1; test: The activity against HIV was determined from patient number 304; assay type: functional, organism-based
[12] = system: Human immunodeficiency virus 1; test: The activity against HIV was determined from patient number 337; assay type: functional, organism-based
MT4 [13] = test: Inhibitory potency towards recombinant HIV-1 3B in MT-4 cell was evaluated in 0% human plasma; assay type: functional, cell-based
MT4 [14] = test: Inhibitory potency towards recombinant HIV-1 3B in MT-4 cell using cytopathic effect as endpoint was evaluated in 0% human plasma; assay type: functional
[15] = system: Human immunodeficiency virus 1; test: The activity against HIV mutant strain V82A was determined from patient number 302; assay type: functional, organism-based
[16] = system: Human immunodeficiency virus 1; test: The activity against HIV mutant strain V82F was determined from patient number 313; assay type: functional, organism-based
Rattus norvegicus [17] = test: Terminal phase half-life was evaluated in vivo in rat at a dose of 5 mg/kg by intra venous administration; assay type: ADME, organism-based; parameters: dose 5 mg/kg; details: iv
Rattus norvegicus [18] = test: Maximum plasma concentration was evaluated in vivo in rat at a dose of 5 mg/kg by oral administration; assay type: ADME, organism-based; parameters: dose 5 mg/kg, route oral
[19] = system: Human immunodeficiency virus 1; test: The activity against multiply mutated strain M36I,I54V,A71V,V82T was determined from patient number 129; assay type: functional, organism-based
Rattus norvegicus [20] = test: Oral bioavailability in rat (dose 5 mg/kg); assay type: ADME, organism-based; details: in vivo

| SMILES | EC50 [1] [nM] | EC50 [2] [nM] | EC50 [3] [nM] | EC50 [4] [nM] | EC50 [5] [nM] | EC50 [6] [nM] | EC50 [7] [nM] | EC50 [8] [nM] | EC50 [9] [nM] | EC50 (MT4 [10]) [nM] | EC50 [11] [nM] | EC50 [12] [nM] | EC50 (MT4 [13]) [nM] | CCIC50 (MT4 [14]) [µM] | EC50 [15] [nM] | EC50 [16] [nM] | T1/2 (Rattus norvegicus [17]) | Cmax (Rattus norvegicus [18]) | EC50 [19] [nM] | F (Rattus norvegicus [20]) |
| --- | --- | --- | --- | --- | --- | --- | --- | --- | --- | --- | --- | --- | --- | --- | --- | --- | --- | --- | --- | --- |
| CC(C)c1nc(CN(C)C(=O)N[C@@H](C(=O)N[C@@H](Cc2ccccc2)C[C@H](O)[C@H](Cc2ccccc2)NC(=O)OCc2cncs2)C(C)C)cs1 | 46 | 59 | 5 | 121 | 352 | 35 | 137 | 276 | 22 | 880 | 35 | 19 | 120 | 27 | 43 | 43 | 1.8 h and 1.41 h and 0.63 h |  |  |  |
| CC(C)c1nc(CN(C)C(=O)N[C@H](C(=O)N[C@@H](Cc2ccccc2)C[C@H](O)[C@H](Cc2ccccc2)NC(=O)OCc2cncs2)C(C)C)cs1 [RITONAVIR] |  | 54 | 5 | 230 | 316 | 35 | 55 | 308 | 143 | 1070 | 19 | 35 | 90 | 35 | 32 | 123 |  | 1360 ng/mL and 3580 ng/mL | 65 | 70.7% and 37.4% and 29.9% |
